Publication PMC5430895 (Scientific Reports, 2017)

Assays:
[1] = tested on: saracatinib uptake into RASF; experiment: Uptake competition experiments: saracatinib uptake by RASF in presence of transporter substrates; conditions: saracatinib 10 µM
[2] = substrate: CN1CCN(CCOc2cc(OC3CCOCC3)c3c(Nc4c(Cl)ccc5c4OCO5)ncnc3c2)CC1; experiment: cells, lysate or membranes named; conditions: other: hOCTN1-HEK293 cells, 10 min incubation; pH 7.4; 37.0 °C
Description: Twenty-four hours before starting experiments hOCTN1 expression was induced by 1 mg/l doxycycline (Sigma-Aldrich, Steinheim, Germany). Cells were grown at standard conditions. […] Cell number was evaluated with a CASEYTT cell counter (Roche Innovatis, Reutlingen, Germany).
After incubation, cells were washed with ice-cold PBS and hypoosmotic lysis was induced with 0.1% formic acid. […] The mobile phase consisted of (A) acetonitrile with 0.1% formic acid and (B) 0.1% formic acid and was delivered at 0.3 ml/min in a gradient program. After delivering 100% B for 3 min, a linear gradient to 100% A was applied within 7 min and maintained for 5 min. Thereafter, in order to re-equilibrate the column, a simple isocratic elution step with 100% eluent B was applied for at least 6 min. […] Separation was carried out on an Accucore C18 column equipped with a C18 guard column. The data were acquired by ChromQuest 5.0 chromatography software.

## C[n+]1ccc(-c2ccccc2)cc1.[I-] [MPP^+]
[1]; MPP+ 20 µM (inhibitor of hOCT1-3)
  effect on saracatinib uptake: did not influence saracatinib uptake

## C[N+](C)(C)[C@@H](Cc1c[nH]c(=S)[nH]1)C(=O)[O-] [Ergothioneine, L-(+)-ergothioneine]
[1]; ergothioneine 40 µM (OCTN1 substrate)
  net accumulation rate of saracatinib, % of the control: 53%

B1: hOCTN1 (Homo sapiens) (protein)
chain: MRDYDEVIAFLGEWGPFQRLIFFLLSASIIPNGFNGMSVVFLAGTPEHRCRVPDAANLSSAWRNNSVPLRLRDGREVPHSCSRYRLATIANFSALGLEPGRDVDLGQLEQESCLDGWEFSQDVYLSTVVTEWNLVCEDNWKVPLTTSLFFVGVLLGSFVSGQLSDRFGRKNVLFATMAVQTGFSFLQIFSISWEMFTVLFVIVGMGQISNYVVAFILGTEILGKSVRIIFSTLGVCTFFAVGYMLLPLFAYFIRDWRMLLLALTVPGVLCVPLWWFIPESPRWLISQRRFREAEDIIQKAAKMNNIAVPAVIFDSVEELNPLKQQKAFILDLFRTRNIAIMTIMSLLLWMLTSVGYFALSLDAPNLHGDAYLNCFLSALIEIPAYITAWLLLRTLPRRYIIAAVLFWGGGVLLFIQLVPVDYYFLSIGLVMLGKFGITSAFSMLYVFTAELYPTLVRNMAVGVTSTASRVGSIIAPYFVYLGAYNRMLPYIVMGSLTVLIGILTLFFPESLGMTLPETLEQMQKVKWFRSGKKTRDSMETEENPKVLITAF
[2]
  Km: 42 ± 11 µM
